Test results reported in PubChem BioAssay AID1963964 (Molecular Pharmacology Branch, DTP, NCI, 2024).

Test system: 997726-040-R-J2-PDC tumor spheroids, viability
Test: Anticancer human tumor 997726-040-R-J2-PDC patient-derived squamous cell lung carcinoma cell line growth inhibition [PI3K]
Conditions: spheroids with HUVEC and MSC; for IC50: curve of first compound; for viability, T/C: stronger effect = lower value
Outline: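 Spheroid viability read-out. Co-cultures contained the tumor line plus HUVEC and human MSCs. Each agent was paired with a PI3K inhibitor (inavolisib, alpelisib, duvelisib, copanlisib) across half-log dilutions starting at clinical Cmax, or at 10 microM when Cmax was unknown.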

[1] = second compound 0.00316 µM, first compound 0.0316 µM
[2] = second compound 0.00316 µM, first compound 0.1 µM
[3] = second compound 0.00316 µM, first compound 0.316 µM
[4] = second compound 0.00316 µM, first compound 1 µM
[5] = second compound 0.01 µM, first compound 0.0316 µM
[6] = second compound 0.01 µM, first compound 0.1 µM
[7] = second compound 0.01 µM, first compound 0.316 µM
[8] = second compound 0.01 µM, first compound 1 µM
[9] = second compound 0.0316 µM, first compound 0.0316 µM
[10] = second compound 0.0316 µM, first compound 0.1 µM
[11] = second compound 0.0316 µM, first compound 0.316 µM
[12] = second compound 0.0316 µM, first compound 1 µM
[13] = second compound 0.1 µM, first compound 0.0316 µM
[14] = second compound 0.1 µM, first compound 0.1 µM
[15] = second compound 0.1 µM, first compound 0.316 µM
[16] = second compound 0.1 µM, first compound 1 µM
[17] = second compound 0.316 µM, first compound 0.0316 µM
[18] = second compound 0.316 µM, first compound 0.1 µM
[19] = second compound 0.316 µM, first compound 0.316 µM
[20] = second compound 0.316 µM, first compound 1 µM
[21] = second compound 1 µM, first compound 0.0316 µM
[22] = second compound 1 µM, first compound 0.1 µM
[23] = second compound 1 µM, first compound 0.316 µM
[24] = second compound 1 µM, first compound 1 µM
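Also: spheroids exposed to compounds for seven days before readout.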

C[C@@H](NC(=O)c1ncnc(N)c1Cl)c1ncc(C(=O)Nc2cc(C(F)(F)F)c(Cl)cn2)s1 + CC(Nc1ccc2c(c1)OCCn1cc(N3C(=O)OCC3C(F)F)nc1-2)C(N)=O
IC50 (second compound 0.00316 µM): > 10000 nM | IC50 (second compound 0.01 µM): > 10000 nM | IC50 (second compound 0.0316 µM): 6260 nM | IC50 (second compound 0.1 µM): 4170 nM | IC50 (second compound 0.316 µM): < 31.6 nM | IC50 (second compound 1 µM): < 31.6 nM | viability, T/C [1]: 92.1% | viability, T/C [2]: 122% | viability, T/C [3]: 104% | viability, T/C [4]: 100% | viability, T/C (second compound 0.00316 µM, first compound 3.16 µM): 85.3% | viability, T/C (second compound 0.00316 µM, first compound 10 µM): 60.4% | viability, T/C [5]: 89.5% | viability, T/C [6]: 95.2% | viability, T/C [7]: 93.5% | viability, T/C [8]: 93.7% | viability, T/C (second compound 0.01 µM, first compound 3.16 µM): 80.7% | viability, T/C (second compound 0.01 µM, first compound 10 µM): 58.3% | viability, T/C [9]: 67% | viability, T/C [10]: 80.4% | viability, T/C [11]: 66.1% | viability, T/C [12]: 61.9% | viability, T/C (second compound 0.0316 µM, first compound 3.16 µM): 57.9% | viability, T/C (second compound 0.0316 µM, first compound 10 µM): 45.3% | viability, T/C [13]: 55% | viability, T/C [14]: 53.7% | viability, T/C [15]: 58.3% | viability, T/C [16]: 58.3% | viability, T/C (second compound 0.1 µM, first compound 3.16 µM): 51.8% | viability, T/C (second compound 0.1 µM, first compound 10 µM): 40.5% | viability, T/C [17]: 42.3% | viability, T/C [18]: 39.3% | viability, T/C [19]: 37.1% | viability, T/C [20]: 41% | viability, T/C (second compound 0.316 µM, first compound 3.16 µM): 39.2% | viability, T/C (second compound 0.316 µM, first compound 10 µM): 30.7% | viability, T/C [21]: 34% | viability, T/C [22]: 33.8% | viability, T/C [23]: 33.6% | viability, T/C [24]: 35.5% | viability, T/C (second compound 1 µM, first compound 3.16 µM): 33.6% | viability, T/C (second compound 1 µM, first compound 10 µM): 24.1%

CCN1CCN(Cc2ccc(Nc3ncc(F)c(-c4cc(F)c5nc(C)n(C(C)C)c5c4)n3)nc2)CC1 + CC(Nc1ccc2c(c1)OCCn1cc(N3C(=O)OCC3C(F)F)nc1-2)C(N)=O
IC50 (second compound 0.00316 µM): > 1000 nM | IC50 (second compound 0.01 µM): 830 nM | IC50 (second compound 0.0316 µM): 10.4 nM | IC50 (second compound 0.1 µM): < 3.16 nM | IC50 (second compound 0.316 µM): < 3.16 nM | IC50 (second compound 1 µM): < 3.16 nM | viability, T/C (second compound 0.00316 µM, first compound 0.00316 µM): 79% | viability, T/C (second compound 0.00316 µM, first compound 0.01 µM): 79.8% | viability, T/C [1]: 72.7% | viability, T/C [2]: 58.5% | viability, T/C [3]: 59.4% | viability, T/C [4]: 62.3% | viability, T/C (second compound 0.01 µM, first compound 0.00316 µM): 79.8% | viability, T/C (second compound 0.01 µM, first compound 0.01 µM): 77.3% | viability, T/C [5]: 60.7% | viability, T/C [6]: 62.6% | viability, T/C [7]: 55.4% | viability, T/C [8]: 48.1% | viability, T/C (second compound 0.0316 µM, first compound 0.00316 µM): 55% | viability, T/C (second compound 0.0316 µM, first compound 0.01 µM): 54.6% | viability, T/C [9]: 45.9% | viability, T/C [10]: 37.7% | viability, T/C [11]: 40.4% | viability, T/C [12]: 43.4% | viability, T/C (second compound 0.1 µM, first compound 0.00316 µM): 44.7% | viability, T/C (second compound 0.1 µM, first compound 0.01 µM): 38.1% | viability, T/C [13]: 34.6% | viability, T/C [14]: 30.5% | viability, T/C [15]: 32.5% | viability, T/C [16]: 32.3% | viability, T/C (second compound 0.316 µM, first compound 0.00316 µM): 33.4% | viability, T/C (second compound 0.316 µM, first compound 0.01 µM): 29.6% | viability, T/C [17]: 26.4% | viability, T/C [18]: 22% | viability, T/C [19]: 23.9% | viability, T/C [20]: 23.1% | viability, T/C (second compound 1 µM, first compound 0.00316 µM): 29.3% | viability, T/C (second compound 1 µM, first compound 0.01 µM): 26.8% | viability, T/C [21]: 22.8% | viability, T/C [22]: 18.2% | viability, T/C [23]: 20.4% | viability, T/C [24]: 21.1%
